Source: patent publication US6872541B2, “Method and compositions for analysis of pentraxin receptors as indicators of disease” (Coulter International Corp., priority 2001, dated 2005)
Where two headings read alike, the source gives them in different places. Each block holds one molecule with its values, some of them ahead of it.

How the values were obtained:
[1] = tested on: peripheral blood monocytes; test: inhibition of bCRP binding to peripheral blood monocytes; settings: added before staining: 50 μgs CRP, 50 μgs SAP, 10 mM EDTA, 100 μgs PC, human IgG
Procedure: (§1) Normal peripheral blood and second sample peripheral blood samples were drawn into EDTA containing tubes, unless noted, and stored at room temperature. Blood was stained within 10 hours of collection. […] In addition the removal of the plasma and red cells allowed calcium to be incorporated into the buffer system without subsequent clotting. Lysis was accomplished either by adding a volume of 3 mL of ammonium chloride (Sigma) containing EDTA (Sigma) solution to each 100 μL whole blood for 10 minutes at room temperature or by using the automated T-QPrep Workstation with the ImmunoPrep Reagent System (Coulter Corporation). The ImmunoPrep Reagent System consists of an acid lyse, followed by neutralization and fixation. The lysed blood was centrifuged, the supernatant decanted and the remaining white cell pellet resuspended in 100 μL 0.01M HEPES (Sigma)—0.15M sodium chloride containing 2% Fetal Calf Serum and 2 mM calcium chloride (Sigma), pH 7.4 (HSFC). […] At the end of this time SA-DTAF at a 1:500 dilution (3.6 μg) and 10-20 μL of the appropriate antibody or isotype combination was added for an additional 15 minutes on ice. Cells were then washed with 3 mL HSFC, centrifuged and resuspended to 1 mL in HSFC (0.3% paraformaldehyde was added to ammonium chloride-lysed cells). Stained cells were kept on ice and analyzed within the hour.

THP-1 cells [2] = test: inhibition of the binding of bCRP to THP-1 cells; design: species or system human; settings: for effect on binding of bCRP to THP-1 cells: washed assay, 5 mM EDTA in the primary incubation, PC inclusion or exclusion from the reaction mixture
Source text: Staining proceeded using the previously determined optimal non-washed conditions. […] All other staining conditions were as previously described using bHSA as the control.

[3] = target: CRP receptor (pentraxin-binding moiety) on human monocytes and myelomonocytic cell lines (human); test: inhibition of bCRP (about 1 µg/mL) binding to THP-1 cells, flow cytometry, non-washed assay
PMN = settings: cited from earlier work
monocytes = settings: cited from earlier work
lymphocytes = settings: cited from earlier work
NK cells (CD56+CD16+) = test: three color flow cytometric analysis of bCRP binding in fresh peripheral blood; design: species or system human; settings: lymphocyte scatter
Procedure: (§2) Blood was stained within 10 hours of collection.

THP-1 cells [4] = tested on: THP-1 cells
Procedure: (§5) After 30 minutes on ice the exposed cells were either washed with 3 mL cold HFCS, centrifuged at 500×g for 3 minutes and resuspended in 100 μL cold HSFC, or left alone to compare washed and non-washed systems. Freshly diluted SA-DTAF in HSFC, 100 μL (9 μg SA-DTAF), was then added to the tubes and incubation proceeded for another 15 minutes on ice protected from light. The stained cells were washed using 3 mL cold HSFC, centrifuged at 500×g for 3 minutes and resuspended in 1 mL cold HSFC containing 0.3% paraformaldehyde (Sigma). Flow cytometric analysis was performed immediately.
(§6) The labeling reagent, SA-DTAF, was kept at a constant 1:200 dilution.
(§7) Target mean channels previously determined for cell lines stained with mouse IgG1-FITC were used to maintain consistency of values. The same fluorescent settings for FITC emission (LFL1) were used for all cell lines to enable direct comparison of median fluorescent intensities. […] Since cell lines consist of a relatively uniform population of cells, a Relative Fluorescent Index (RFI) comparing the level of fluorescence to the negative control was used as a more accurate representation of binding levels. The median value for the peak fluorescence (MdX) was used in place of the mean fluorescence intensity so that any skewed population shifts would be captured. […]

[5] = tested on: peripheral blood monocytes; test: flow cytometric binding of bCRP:SA-DTAF to peripheral blood monocytes; design: species or system human
Procedure: as §2
This concentration was used for all subsequent staining. Freshly drawn blood was evaluated within 30 to 60 minutes of collection and examined with specific markers identifying cell populations to ensure that the receptor binding pattern was similar to that obtained up to 10 hours later.
To ensure that enough monocytes were collected for the analysis stop counts were set to collect at least 1000 monocyte events based on forward and side scatter parameters.
Two individual donors were evaluated each day. The concentration of SA-DTAF was kept constant at a 1:500 dilution in HSFC (3.6 μgs). Peripheral blood monocyte binding was used to determine the optimal concentration. The percent positive values were expressed relative to the 2% cursor placed on the same population stained with the bHSA negative control. The choice of a 2% negative cursor instead of the RFI was made since a subset population was suspected due to the appearance of both a positive and negative stained monocyte population.
Single color, two or three-color staining was used along with monocyte forward and side scatter parameters to enumerate the percentage of positively stained cells. A negative staining control, bHSA:SA-DTAF was always run to establish the negative cursor placement. […] The samples were then evaluated for any differences in result due to gender, ethnic origin or age. […] No significant pattern or correlation was observed between the ages of 24 to 65 years and the binding of CRP to monocytes.

[6] = tested on: T cell populations (CD4+ or CD8+); settings: lymphocyte scatter
Procedure: as §1, with “Cells were then washed with 3 mL HSFC, centrifuged and resuspended to 1 mL in HSFC (0.3% paraformaldehyde was added to ammonium chloride-lysed cells).” left out, “hour. […]” for “hour.”
(§3) A total of six different normal blood samples were drawn, three individual donors on two separate occasions, and evaluated within 30-60 minutes of collection. […]

[7] = tested on: Granulocytes (CD13+ or CD16+); settings: gated by scatter and CD13+ or CD16+
Procedure: as §1, with “Cells were then washed with 3 mL HSFC, centrifuged and resuspended to 1 mL in HSFC (0.3% paraformaldehyde was added to ammonium chloride-lysed cells).” left out, “hour. […]” for “hour.”
as §3

MOLT-4 cells = settings: washed assay
Procedure: as §5, §6, §7

HL-60 cells = test: flow cytometric ligand binding assay of bCRP:SA-DTAF on untreated, DMSO- or PMA-induced cells; design: species or system human
Procedure: (§4) Flow cytometric analysis was performed immediately.
HL-60 was induced towards either the granulocyte or monocyte pathway with DMSO or phorbol-12-myristate-13-acetate (PMA), respectively. To induce the myelocyte differentiation pathway of HL-60 cells into mature myelocytes or monocytes, a concentration of 1.2% DMSO (Baxter Research, Midvale, Utah) included in the media was added to 2.5×10^5 cells/mL for 6 to 14 days. Monocyte differentiation of HL60 cells was promoted by exposing 5×10^5 cells/mL to 16 nM PMA for 48-72 hours prior to harvest. Untreated cells were always harvested along with the treated cells on the day of testing. A control using the same concentration of PMA dissolution media (DMSO) was also monitored. Viability of cells was determined by trypan blue exclusion and was always greater than 95% except for PMA treated cells that consistently were at 84% due to removal of the adherent cells from the flask via scraping. Prior to staining, the cells were washed with 10 mM HEPES, 150 mM sodium chloride buffer, pH 7.4 containing 0.01% sodium azide, 2% heat-inactivated fetal calf serum and 2 mM calcium chloride (HSFC) and resuspended to 1×10^7 cells/mL.

Raji cells = test: flow cytometric ligand binding assay of bCRP:SA-DTAF on cell lines; design: species or system human
Procedure: as §4

Daudi cells = test: as above; design: species or system human; settings: washed assay
Procedure: as §4

KG-1a cells = test: as above; design: species or system human; settings: washed assay
Procedure: as §4

U937 cells = test: as above; design: species or system human; settings: washed assay
Procedure: as §4

[8] = target: CRP receptor (pentraxin-binding moiety) on human monocytes and myelomonocytic cell lines (human); test: 50 µgs purified human SAP added before bCRP staining of peripheral blood monocytes, flow cytometry
[9] = target: isolated human peripheral blood monocytes; settings: requirement for calcium, optimal pH 7.4; read-out: dissociation constant; cited from earlier work
[10] = target: CRP receptor (pentraxin-binding moiety) on human monocytes and myelomonocytic cell lines (human); test: 50 µgs purified CRP added before bCRP staining of peripheral blood monocytes, flow cytometry

Molecule: C[N+](C)(C)CCOP(=O)(O)O [PC, phosphorylcholine, reference compound]
inhibition of bCRP binding to peripheral blood monocytes [1]: ~1% | effect on binding of bCRP to THP-1 cells (THP-1 cells [2]): no significant difference

Molecule: CRP fragment 174-185: defined fragment of CRP, amino acid residues 174-185 of SEQ ID NO: 2 (Sigma) (IYLGGPFSPNVL; human CRP)
inhibition of bCRP binding to THP-1 cells (in words) (THP-1 cells [2]; non-washed assay, fragment 174-185 at 100 μgs (˜128 M solution), not repeated, other fragments up to 200 μgs): appeared to suppress the reaction

Molecule: CRP: purified human C-reactive protein, pentameric pentraxin of 206 amino acid subunits (SEQ ID NO: 2), used unlabeled as inhibitor
inhibition of bCRP binding to peripheral blood monocytes [1]: ~86% | point at which 50% of the binding was inhibited (amount) (THP-1 cells [2]; non-washed assay, bCRP approximately 1 μg/mL): 0.72 μgs

Molecule: aggregated CRP: aggregated CRP of a prior report (Zeller et al., 1986)
percent of cells binding (PMN; PMN stimulated with PMA): 93% | percent of cells binding (PMN; resting PMN): approximately 36% | percent of cells binding (monocytes; monocytes): 70% | percent of cells binding (lymphocytes): 8%

Molecule: radiolabeled CRP: radiolabeled CRP of a prior report (Ballou et al., 1989)
Kd [9]: ~100 nM

Now from value to molecule, other results behind:

inhibition of bCRP binding to peripheral blood monocytes [1]: ~98%
Molecule: O=C(O)CN(CCN(CC(=O)O)CC(=O)O)CC(=O)O [EDTA, reference compound]
effect on binding of bCRP to THP-1 cells (THP-1 cells [2]): abolished

IC50 [3]: 0.0087 nM
Molecule: Limulus CRP (from UniProt P06205 25-242) (ligand)

binding of bCRP ([5]; monocyte subset, dual CD14+CD16+): bound very little bCRP | normal range of CRP binding by monocytes ([5]; normal donors): 49-90% | percentage of binding (monocytes) ([5]; one-step bCRP:SA-DTAF complex): 84.6% | average percent positive values of bCRP binding, monocytes gated by light scatter ([5]; six freshly drawn normal donors, 30-60 minutes after collection): approximately 70% | percentage of binding (monocytes) ([5]; two-step method with wash after primary incubation): 85.8%
Molecule: bCRP: purified human C-reactive protein labeled with biotin, detected with streptavidin conjugated fluorescein derivative (SA-DTAF)
binding of bCRP vs negative bHSA control (NK cells (CD56+CD16+)): no binding of bCRP above that of the negative control | RFI (THP-1 cells [4]; THP-1 run at the same time as positive control for the HL-60 induction experiment): 25.1 | RFI (Relative Fluorescent Index, bCRP MdX / bHSA MdX) (THP-1 cells [4]; washed assay, THP-1): 14.5 | binding of bCRP vs negative bHSA control ([5]; monocytes selected by scatter and CD13, CD14 or CD33): definite fluorescent signal above that of the negative control | binding of bCRP vs negative bHSA control [6]: no binding of bCRP above that of the negative control | binding of bCRP vs negative bHSA control [7]: no binding of bCRP above that of the negative control | RFI (Relative Fluorescent Index, bCRP MdX / bHSA MdX) (MOLT-4 cells): under 0.9 | RFI (HL-60 cells; CTL: HL-60 control for PMA-treated cells (same dilution of DMSO as PMA solvent)): 0.7 | RFI (HL-60 cells; DMSO-treated HL-60): 1.0 | RFI (HL-60 cells; HL-60 treated with PMA, 48 hours (PMA-48)): 1.2 | RFI (HL-60 cells; HL-60 treated with PMA, 72 hours (PMA-72)): 1.5 | RFI (HL-60 cells; untreated HL60): 0.6 | binding to cells (HL-60 cells; untreated or DMSO-treated HL-60 cells, washed and no-wash systems): negative | binding (in words) (Raji cells; B cell line Raji): No binding | RFI (Relative Fluorescent Index, bCRP MdX / bHSA MdX) (Raji cells; washed assay, Raji): under 0.9 | RFI (Relative Fluorescent Index, bCRP MdX / bHSA MdX) (Daudi cells): under 0.9 | RFI (Relative Fluorescent Index, bCRP MdX / bHSA MdX) (KG-1a cells): 1.2 | RFI (Relative Fluorescent Index, bCRP MdX / bHSA MdX) (U937 cells): 1.3 | average percent of monocytes binding (monocytes; other reports): 67±12%

inhibition of bCRP binding to peripheral blood monocytes [1]: ~77%
Molecule: human SAP: another pentraxin, human Serum Amyloid P, >99% purity

percent inhibition [8]: 77% | IC50 [3]: 0.15 nM
Molecule: human Serum Amyloid P (from UniProt P02743 20-223) (ligand)

percent inhibition [10]: 86%
B1: purified human C-reactive protein (ligand)
chain: QTDMSRKAFVFPKESDTSYVSLKAPLTKPLKAFTVCLHFYTELSSTRGYSIFSYATKRQDNEILIFWSKDIGYSFTVGGSEILFEVPEVTVAPVHICTSWESASGIVEFWVDGKPRVRKSLKKGYTVGAEASIILGQEQDSFGGNFEGSQSLVGDIGNVNMWDFVLSPDEINTIYLGGPFSPNVLNWRALKYEVQGEVFTKPQLWP
